For experiment [1], the target named is T1, human Adenosine A2b receptor (Homo sapiens, UniProt P29275).
T1 construct: expressed in transfected cells; host or cells: CHO cell membranes
T1 sequence (P29275 1-332): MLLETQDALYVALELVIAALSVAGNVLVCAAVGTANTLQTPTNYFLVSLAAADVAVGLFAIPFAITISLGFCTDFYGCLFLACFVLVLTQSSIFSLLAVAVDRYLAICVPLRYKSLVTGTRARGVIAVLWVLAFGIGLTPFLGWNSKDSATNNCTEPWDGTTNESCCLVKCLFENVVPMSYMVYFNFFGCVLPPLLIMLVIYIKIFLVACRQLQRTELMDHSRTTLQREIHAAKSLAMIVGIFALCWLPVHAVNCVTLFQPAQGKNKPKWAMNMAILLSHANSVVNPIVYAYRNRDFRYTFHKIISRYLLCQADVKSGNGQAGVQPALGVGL
The experiment in a line: Adenosine receptor TR-FRET binding assay (CA200645 displacement), A2b. Conditions: 30 nM CA200645, CHO cell membranes, 2 hours at room temperature.

For experiment [2], the system named is CD8+ T cells in human whole blood. The experiment in a line: Measurement of pCREB in CD8+ T cells in human whole blood. Conditions: T-cell, 1 h; heparinised human whole blood, rolipram, 3 μM NECA, 60 min, phospho-CREB in CD8+ T cells by FACS. Type of experiment: cell-based. How it is done: Heparinised human whole blood was pre-incubated at 37° C. with serial dilutions of A2a antagonists for 20 min. and the phosphodiesterase inhibitor rolipram to amplify the pCREB response. The adenosine receptor agonist NECA is then added at a final concentration of 3 μM and following a 60 min incubation the blood is fixed and red blood cells lysed. White blood cells are isolated, permeabilized and stained with directly conjugated fluorescent antibodies to phospho-CREB (Alexa Fluor 488) and CD8 (Alexa Fluor 647) and the level of phospho-CREB in CD8+ T cells is measured by FACS using a BD Accuri C6 Flow Cytometer.

For experiment [3], the target named is T2, human Adenosine A3 receptor (Homo sapiens, UniProt P0DMS8).
T2 sequence (P0DMS8 1-318): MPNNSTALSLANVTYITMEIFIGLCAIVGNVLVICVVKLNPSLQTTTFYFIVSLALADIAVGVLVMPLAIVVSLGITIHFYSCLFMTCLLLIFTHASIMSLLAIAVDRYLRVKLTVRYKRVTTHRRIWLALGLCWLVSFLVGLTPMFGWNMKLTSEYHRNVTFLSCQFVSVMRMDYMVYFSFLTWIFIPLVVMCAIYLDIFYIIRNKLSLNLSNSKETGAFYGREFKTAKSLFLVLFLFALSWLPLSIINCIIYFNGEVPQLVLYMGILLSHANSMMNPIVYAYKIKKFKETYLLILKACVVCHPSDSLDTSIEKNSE
The experiment in a line: Adenosine receptor TR-FRET binding assay (CA200645 displacement), A3.
Method: All FRET binding experiments were conducted at room temperature in white 384-well plates, in assay binding buffer containing 1×LabMed (Cisbio, France), 100 μg/mL saponin, 1% DMSO and 0.02% pluronic acid. Binding of the fluorescently labelled Adenosine receptor antagonist XAC (CA200645, FRET acceptor) to terbium-labelled A1, A2a, A2b and A3 adenosine receptors (FRET donors) was detected by time-resolved FRET due to the close proximity of the donor and acceptor in a binding event. To investigate the ability of unlabelled test compounds to bind to Adenosine A1, A2a, A2b and A3 receptors, dose response curves were constructed that determined the ability of a range of concentrations to inhibit the binding of 30 nM CA200645 to the A2b receptor and 100 nM CA200645 to the A1, A2a, and A3 receptor.
Serial dilution (1:3 dilutions) of test compounds in neat DMSO and transfer of a 400 nL sample of test compound into the assay plate was carried out using the Mosquito (TTP Labtech, UK). The compound samples were incubated for 2 hours at room temperature with a fixed concentration of CA200645 defined for each receptor (see above) and CHO cell membranes containing the human Adenosine A1 (0.5 μg/well), A2a (0.3 μg/well), A2b (1 μg/well) or A3 (1 μg/well) receptor in 40 μL of assay buffer. Total and non-specific binding of CA200645 was determined in the absence and presence of 10 μM XAC, respectively. Following 2 hours incubation, the level of CA200645 binding was detected on a Pherastar FSX (BMG Labtech, Germany) using standard TR-FRET settings. The terbium donor was excited with three laser flashes at a wavelength of 337 nm, and donor and acceptor emission was detected at 620 nm and 665 nm wavelengths, respectively. FRET ratios were obtained by multiplying the acceptor/donor ratio value by 10,000. Specific binding was determined by subtracting the non-specific binding FRET ratio from the total binding FRET ratio. Compound IC50 curves were analysed using GraphPad Prism 7.0 (GraphPad, USA) and Ki affinity values were determined from the obtained IC50 values using the method of Cheng and Prusoff.

For experiment [4], the target named is T3, human Adenosine A2a receptor (Homo sapiens, UniProt P29274).
T3 construct: expressed in transfected cells; host or cells: CHO cell membranes
The experiment in a line: Adenosine receptor TR-FRET binding assay (CA200645 displacement), A2a. Conditions: 100 nM CA200645, CHO cell membranes, 2 hours at room temperature.

A further experiment has as its system human PBMCs. The experiment in a line: CD3/CD28 stimulated IL-2 release NECA reversal assay in human PBMCs.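 Note: dose-response as % inhibition where 100% equals no-NECA control wells with CD3/CD28.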 The class given is cell-based. Conditions: PBMC, CD3/CD28 antibody stimulated, 1 uM NECA, 24 hours, IL-2 in culture supernatant. How it is done:
Blood is drawn from healthy volunteers using sodium citrate as the anticoagulant (0.3% final concentration). After centrifugation of the blood over Histopaque-1077, PBMCs are collected from the Histopaque/plasma interface and washed twice in PBS (300 g for 10 mins at room temp). Cells are plated at 50,000 cells/well in 150 μl RPMI/10% FCS in 96-well cell culture plates that have been precoated with 1 ug/ml CD3 antibody. 50 μl diluted compound mix is added to the cells, to obtain final concentrations of 1 ug/ml CD28 antibody, 1 uM NECA and 0.003-10 μM adenosine receptor antagonist. Assay plates are incubated for 24 hours at 37° C. in a humidified incubator. Culture supernatant is tested for IL-2 levels using the human IL-2 Tissue Culture Kit (Meso Scale Discovery).

In experiment [5] the target is T4, human Adenosine A1 receptor (Homo sapiens, UniProt P30542).
T4 sequence (P30542 1-326): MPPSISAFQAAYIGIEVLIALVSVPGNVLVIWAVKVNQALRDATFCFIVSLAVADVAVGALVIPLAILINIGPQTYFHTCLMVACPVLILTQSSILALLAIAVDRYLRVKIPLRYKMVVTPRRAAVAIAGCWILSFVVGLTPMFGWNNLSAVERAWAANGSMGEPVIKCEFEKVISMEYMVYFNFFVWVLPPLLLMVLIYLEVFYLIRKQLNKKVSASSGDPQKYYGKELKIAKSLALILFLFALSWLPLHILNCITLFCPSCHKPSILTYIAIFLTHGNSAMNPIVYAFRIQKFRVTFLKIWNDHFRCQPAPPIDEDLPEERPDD
The experiment in a line: Adenosine receptor TR-FRET binding assay (CA200645 displacement), A1.

We go through 19 molecules from US20230203041A1, “ANTAGONISTS OF THE ADENOSINE A2A RECEPTOR” (AdoRx Therapeutics Limited, priority 2020, published 2023).

T3 sequence (P29274 whole entry): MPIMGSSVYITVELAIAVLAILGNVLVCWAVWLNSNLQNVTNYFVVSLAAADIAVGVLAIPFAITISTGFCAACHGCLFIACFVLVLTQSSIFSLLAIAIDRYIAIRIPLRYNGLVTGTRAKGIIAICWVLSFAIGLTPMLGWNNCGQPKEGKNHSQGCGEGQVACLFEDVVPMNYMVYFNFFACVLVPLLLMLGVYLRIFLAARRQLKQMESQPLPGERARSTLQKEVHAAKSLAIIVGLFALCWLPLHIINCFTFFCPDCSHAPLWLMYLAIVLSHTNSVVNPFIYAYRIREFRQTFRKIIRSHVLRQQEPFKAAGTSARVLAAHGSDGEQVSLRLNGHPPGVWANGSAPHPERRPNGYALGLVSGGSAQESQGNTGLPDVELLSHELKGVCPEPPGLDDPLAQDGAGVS

For the molecule `Cc1cc(-c2c(-c3cccc(C#N)c3)nn3ccc(N[C@H](C)CO)nc23)cc(Cl)n1` [Example 3.3], the Ki in experiment [1] was 2 nM; in experiment [3] it was > 1000 nM; in experiment [4], 0.3 nM. The IC50 came to 210 nM in experiment [2] and 1 nM with human PBMCs.
As to `COCC(C)(C#N)NC(=O)c1ccn2nc(-c3cccc(C#N)c3)c(-c3cc(C)nc(Cl)c3)c2n1` (centres unmarked) [Example 6.11, 3-(2-Chloro-6-methyl-4-pyridyl)-N-(1-cyano-2-methoxy-1-methyl-ethyl)-2-(3-cyanophenyl)pyrazolo[1,5-a]pyrimidine-5-carboxamide], the Ki turned out to be 3 nM in experiment [1], 379 nM in experiment [3], 32 nM in experiment [5] and 0.1 nM in experiment [4]. This molecule had an IC50 in experiment [2] of 20 nM.
Consider `O=Cc1c(-c2ccco2)nn2ccc(NCc3ccccc3)nc12` [Example 47, 5-(Benzylamino)-2-(2-furyl)pyrazolo[1,5-a]pyrimidine-3-carbaldehyde], for which the Ki stood at 483 nM in experiment [1], 510 nM in experiment [3], 174 nM in experiment [5] and 5.2 nM in experiment [4]. Moreover, the IC50 with human PBMCs amounted to 140 nM.
The like results for `c1ccc(CNc2ccn3nc(-c4ccco4)cc3n2)cc1` [Example 48, N-Benzyl-2-(2-furyl)pyrazolo[1,5-a]pyrimidin-5-amine] were, in that order, 1170 nM, 41 nM, 137 nM, 16.6 nM and 1890 nM.
On to `Cc1cccnc1CN1CCN(c2ccn3nc(-c4ccco4)c(C#N)c3n2)CC1` [Example 51, 2-(2-Furyl)-5-[4-[(3-methyl-2-pyridyl)methyl]piperazin-1-yl]pyrazolo[1,5-a]pyrimidine-3-carbonitrile], for which the Ki in experiment [1] stood at 2550 nM; in experiment [3], 2120 nM; in experiment [5] it was 125 nM; in experiment [4], 24.1 nM. Moreover, the IC50 in the experiment with human PBMCs came to 73 nM.
The like results for `N#Cc1c(-c2ccco2)nn2ccc(N3CCN(Cc4c(F)cc(F)cc4F)CC3)nc12` [Example 51.1, 2-(2-Furyl)-5-[4-[(2,4,6-trifluorophenyl)methyl]piperazin-1-yl]pyrazolo [1,5-a]pyrimidine-3-carbonitrile] were, in that order, 1420 nM, > 1000 nM, 322 nM, 26.5 nM and 16 nM.
On the same counts, the results for `Cc1ccc(-c2nn3ccc(NCc4ccccc4)nc3c2C#N)o1` [Example 64, 5-(benzylamino)-2-(5-methyl-2-furyl)pyrazolo[1,5-a]pyrimidine-3-carbonitrile] are 508 nM, 41 nM, 16 nM, 7.5 nM and 146 nM.
The like results for `Fc1cccc(-c2cc3nc(NCc4ccccc4)ccn3n2)c1` [Example 66, N-benzyl-2-(3-fluorophenyl)pyrazolo[1,5-a]pyrimidin-5-amine] were, in that order, 384 nM, > 1000 nM, 59 nM, 44.7 nM and 869 nM.
As for `N#Cc1c(-c2cccc(F)c2)nn2ccc(N)nc12` [Example 72, 5-Amino-2-(3-fluorophenyl)pyrazolo[1,5-a]pyrimidine-3-carbonitrile], the Ki turned out to be 116 nM in experiment [1], 92 nM in experiment [3], 0.3 nM in experiment [5] and 30.9 nM in experiment [4]. For the same molecule, in the experiment with human PBMCs, the IC50 was found to be 565 nM.
On to `Cc1cc(-c2c(-c3cccc(C#N)c3)nn3ccc(C(=O)NC(C)(C)C)nc23)cc(N)n1` [Example 91, 3-(2-Amino-6-methyl-4-pyridyl)-N-tert-butyl-2-(3-cyanophenyl)pyrazolo [1,5-a]pyrimidine-5-carboxamide], for which the Ki stood at 71 nM in experiment [1], 1040 nM in experiment [3], 102 nM in experiment [5] and 0.2 nM in experiment [4]. In experiment [2], this molecule came in with an IC50 of 340 nM.
On the same counts, the results for `Cc1cc(-c2c(-c3cccc(C#N)c3)nn3ccc(C(=O)N[C@H](C)C(C)(C)O)nc23)cc(C)n1` [Example 92.10] are 117 nM, > 1000 nM, 591 nM, 0.5 nM and 150 nM.
The like results for `Cc1cc(-c2c(-c3cccc(C#N)c3)nn3ccc(C(=O)NOCC(C)(C)O)nc23)cc(C)n1` [Example 92.11] were, in that order, 21 nM, > 1000 nM, 217 nM, 1.5 nM and 2100 nM.
On the same counts, the results for `Cc1cc(-c2c(-c3cccc(C#N)c3)nn3ccc(C(=O)N[C@@H]4COC[C@]4(C)O)nc23)cc(C)n1` [Example 92.12] are 44 nM, > 1000 nM, 274 nM, 0.8 nM and 150 nM.
Regarding `Cc1cc(-c2c(-c3cccc(C#N)c3)nn3ccc(C(=O)N[C@@H]4COC[C@@]4(C)O)nc23)cc(C)n1` [Example 92.13], the Ki in experiment [1] was 101 nM; in experiment [3] it was > 1000 nM; in experiment [5], 282 nM; in experiment [4], 1 nM. For the same molecule, the IC50 in experiment [2] came out at 100 nM.
On the same counts, the results for `Cc1cc(-c2c(-c3cccc(C#N)c3)nn3ccc(C(=O)NCC4CCCN(C)C4=O)nc23)cc(C)n1` (centres unmarked) [Example 92.14] are 10 nM, > 1000 nM, 79 nM, 0.4 nM and 60 nM.
The like results for `Cc1cc(-c2c(-c3cccc(C#N)c3)nn3ccc(C(=O)NCC4(C)COC(=O)N4)nc23)cc(C)n1` (centres unmarked) [Example 92.21] were, in that order, 17 nM, > 1000 nM, 288 nM, 0.7 nM and 110 nM.
The like results for `Cc1cc(-c2c(-c3cccc(C#N)c3)nn3ccc(C(=O)N[C@H]4CC[C@](C)(O)CC4)nc23)cc(C)n1` [Example 92.22] were, in that order, 29 nM, > 1000 nM, 204 nM, 0.6 nM and 370 nM.
Consider `Cc1cc(-c2c(-c3cccc(C#N)c3)nn3ccc(C(=O)N[C@H]4C[C@@](C)(O)C4)nc23)cc(C)n1` [Example 92.24], for which the Ki was 23 nM in experiment [1], > 1000 nM in experiment [3], 347 nM in experiment [5] and 1.3 nM in experiment [4]. This molecule displayed an IC50 in experiment [2] of 330 nM.
The like results for `Cc1cc(-c2c(-c3cccc(C#N)c3)nn3ccc(C(=O)N[C@H]4CN(C)C[C@H]4O)nc23)cc(C)n1` [Example 92.34] were, in that order, 32 nM, > 1000 nM, 428 nM, 1.5 nM and 140 nM.
